In publication PMC6441019, “Prospective discovery of small molecule enhancers of an E3 ligase-substrate interaction” (Nature Communications, 2019):
Values belong to the compound of their own block, whether it stands above or below them. Where no end group is shown, it is not given here.

Experiments:
[1] = biological target: T1, pSer33/S37A β-catenin peptide binding to β-TrCP (Homo sapiens, UniProt P35222+Q9Y297, S37A); test: TR-FRET peptide binding and cooperativity assay, pSer33/S37A peptide
T1 construct: titrating BODIPY-FL-labeled β-catenin peptides (residues 17-48) against 300 pM β-TrCP; 6xHis-SMT3 (N, cleaved yes); made in house; host or cells: E. coli (co-expressed with BirA)
Experimental: (§1) Compounds were incubated in a 20 μl reaction volume with 300 pM biotinylated β-TrCP/Skp1 preincubated with 1.2 nM terbium-coupled streptavidin (Cisbio) and BODIPY-FL labeled β-catenin peptides (see figure legends for peptide details) in a white 384-well microplate (Perkin Elmer ProxiPlate), using a PBS buffer containing 0.01% Triton X-100 and 2 mM DTT with 2% final DMSO. […] Following 1-h incubation, plates were read for TR-FRET signal after excitation at 320 nm and read at 520 and 620 nm using an EnVision plate reader (Perkin Elmer). TR-FRET signal was calculated using a 520/620 nm ratio. Binding and enhancement data were fit to a standard Hill equation (Y = Bmin + (Bmax − Bmin)(X^h)/(X^h + EC50^h)) in Prism (GraphPad). Errors are standard error of the fit.

[2] = biological target: T2, S33E/S37A β-catenin peptide ubiquitylation by SCFβ-TrCP (Homo sapiens, UniProt P35222+Q9Y297, S33E/S37A); test: In vitro ubiquitylation of S33E/S37A β-catenin peptide; assay type: biochemical; conditions: 20 μM compound
T2 construct: fluorescently-labeled S33E/S37A β-catenin peptide (residues 17–60) was ubiquitylated; 6xHis-SMT3 (N, cleaved yes); made in house; host or cells: E. coli (β-TrCP1/Skp1); E. coli or SF9 (Cul1-Rbx1)
Experimental: (§2) Four micromolar of fluorescently-labeled β-catenin peptide (residues 17–60) were ubiquitylated in a buffer containing 25 mM Tris Cl (pH 7.5), 50 mM NaCl, 5 mM MgCl2, 2 mM ATP, and 1 mM DTT at room temperature in the presence of 62.5 μM Ubiquitin, 125 nM Ube1, 1.75 μM Cdc34A, and 100 nM neddylated SCF^β-TrCP in the presence or absence of compound (as indicated). Typically, individual reaction mixes with either Ubiquitin, Ube1 and Cdc34A or β-catenin, SCF^β-TrCP and compound were preincubated and subsequently mixed to initiate β-catenin ubiquitylation. Reactions were quenched by SDS loading buffer, resolved by SDS-PAGE and imaged for fluorescence. For full length β-catenin protein ubiquitylation 400 nM β-catenin and 400 nM SCF^β-TrCP were used instead.

[3] = biological target: T3, full-length S33E/S37A β-catenin protein ubiquitylation by SCFβ-TrCP (Homo sapiens, UniProt P35222+Q9Y297, S33E/S37A); test: In vitro ubiquitylation of full-length S33E/S37A β-catenin protein; assay type: biochemical; conditions: 20 μM compound
T3 construct: 6xHis-SMT3 (N, cleaved yes); host or cells: HEK293T (β-catenin); E. coli (β-TrCP1/Skp1); E. coli or SF9 (Cul1-Rbx1)
Experimental: as §2

[4] = biological target: T4, S33E/S37A β-catenin peptide binding to β-TrCP (Homo sapiens, UniProt P35222+Q9Y297, S33E/S37A); test: TR-FRET binding enhancement assay, S33E/S37A peptide; conditions: 1% binding saturation
T4 construct: titrating BODIPY-FL-labeled β-catenin peptides (residues 17-48) against 300 pM β-TrCP; 6xHis-SMT3 (N, cleaved yes); made in house; host or cells: E. coli (co-expressed with BirA)
Experimental: as §1

[5] = biological target: T4, S33E/S37A β-catenin peptide binding to β-TrCP; test: TR-FRET peptide binding assay, S33E/S37A peptide; conditions: read-out: binding affinity of S33E/S37A peptide
Experimental: as §1

[6] = biological target: T5, pSer33/S37A β-catenin peptide ubiquitylation by SCFβ-TrCP (Homo sapiens, UniProt P35222+Q9Y297, S37A); test: In vitro ubiquitylation of pSer33/S37A β-catenin peptide; assay type: biochemical
T5 construct: fluorescently-labeled β-catenin peptide (residues 17–60; as indicated) was ubiquitylated; 6xHis-SMT3 (N, cleaved yes); made in house; host or cells: E. coli (β-TrCP1/Skp1); E. coli or SF9 (Cul1-Rbx1)
Experimental: as §2

[7] = biological target: T6, pSer33/Ser37 β-catenin peptide binding to β-TrCP (Homo sapiens, UniProt P35222+Q9Y297); test: TR-FRET peptide binding and cooperativity assay, pSer33/Ser37 peptide; conditions: ratio of peptide KD without and with saturating enhancer; pSer33/Ser37
T6 construct: titrating BODIPY-FL-labeled β-catenin peptides (residues 17-48) against 300 pM β-TrCP; 6xHis-SMT3 (N, cleaved yes); made in house; host or cells: E. coli (co-expressed with BirA)
Experimental: as §1

[8] = biological target: T7, pSer33/Ser37 β-catenin:β-TrCP interaction (Homo sapiens, UniProt P35222+Q9Y297); test: TR-FRET binding enhancement assay, pSer33/Ser37 peptide
T7 construct: titrating BODIPY-FL-labeled β-catenin peptides (residues 17-48) against 300 pM β-TrCP; 6xHis-SMT3 (N, cleaved yes); made in house; host or cells: E. coli (co-expressed with BirA)
Experimental: as §1

[9] = biological target: T8, pSer33/Ser37 β-catenin peptide ubiquitylation by SCFβ-TrCP (Homo sapiens, UniProt P35222+Q9Y297); test: In vitro ubiquitylation of pSer33/Ser37 β-catenin peptide; assay type: biochemical
T8 construct: fluorescently-labeled β-catenin peptide (residues 17–60) were ubiquitylated; 6xHis-SMT3 (N, cleaved yes); made in house; host or cells: E. coli (β-TrCP1/Skp1); E. coli or SF9 (Cul1-Rbx1)
Experimental: as §2

[10] = biological target: T1, pSer33/S37A β-catenin peptide binding to β-TrCP; test: TR-FRET binding enhancement assay, pSer33/S37A peptide
Experimental: as §1

β-TrCP = biological target: T9, β-TrCP (Homo sapiens, UniProt Q9Y297); test: TR-FRET peptide binding in absence of compound
T9 construct: 6xHis-SMT3 (N, cleaved yes); made in house; host or cells: E. coli (co-expressed with BirA)
Experimental: as §1

T4 sequence (Q9Y297 1-569 isoform Q9Y297-2, stated change not applied, one chain of several): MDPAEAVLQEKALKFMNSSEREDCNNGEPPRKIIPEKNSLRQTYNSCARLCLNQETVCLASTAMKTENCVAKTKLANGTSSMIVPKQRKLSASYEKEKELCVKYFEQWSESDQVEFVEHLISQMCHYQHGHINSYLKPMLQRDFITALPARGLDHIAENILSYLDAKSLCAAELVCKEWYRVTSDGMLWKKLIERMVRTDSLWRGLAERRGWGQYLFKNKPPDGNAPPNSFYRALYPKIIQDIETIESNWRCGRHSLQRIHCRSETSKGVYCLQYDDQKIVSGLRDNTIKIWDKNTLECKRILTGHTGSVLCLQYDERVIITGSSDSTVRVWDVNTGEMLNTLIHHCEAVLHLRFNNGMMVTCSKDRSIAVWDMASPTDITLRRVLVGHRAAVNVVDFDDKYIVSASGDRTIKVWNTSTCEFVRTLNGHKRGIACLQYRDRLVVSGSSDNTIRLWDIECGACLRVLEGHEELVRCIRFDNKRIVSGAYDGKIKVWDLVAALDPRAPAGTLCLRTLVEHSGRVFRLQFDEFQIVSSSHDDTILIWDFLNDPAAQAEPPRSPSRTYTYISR
T4 sequence (P63208 whole entry partner, one chain of several, the tested form may be a part): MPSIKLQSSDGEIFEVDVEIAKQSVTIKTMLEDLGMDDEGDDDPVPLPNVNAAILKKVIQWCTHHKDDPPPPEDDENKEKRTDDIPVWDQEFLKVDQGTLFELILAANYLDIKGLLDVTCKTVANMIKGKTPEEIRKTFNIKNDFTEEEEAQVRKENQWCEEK
T1 sequence (Q9Y297 1-569 isoform Q9Y297-2, stated change not applied): as the sequence (Q9Y297 1-569 isoform Q9Y297-2, stated change not applied, one chain of several) above
T1 sequence (P63208 whole entry partner, the tested form may be a part): as the sequence (P63208 whole entry partner, one chain of several, the tested form may be a part) above
T1 sequence (P35222 17-48 S37A limits assumed): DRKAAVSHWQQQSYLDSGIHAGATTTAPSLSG
T8 sequence (Q9Y297 1-569 isoform Q9Y297-2): as the sequence (Q9Y297 1-569 isoform Q9Y297-2, stated change not applied, one chain of several) above
T8 sequence (P63208 whole entry partner, the tested form may be a part): as the sequence (P63208 whole entry partner, one chain of several, the tested form may be a part) above
T8 sequence (Q13616 whole entry partner, the tested form may be a part): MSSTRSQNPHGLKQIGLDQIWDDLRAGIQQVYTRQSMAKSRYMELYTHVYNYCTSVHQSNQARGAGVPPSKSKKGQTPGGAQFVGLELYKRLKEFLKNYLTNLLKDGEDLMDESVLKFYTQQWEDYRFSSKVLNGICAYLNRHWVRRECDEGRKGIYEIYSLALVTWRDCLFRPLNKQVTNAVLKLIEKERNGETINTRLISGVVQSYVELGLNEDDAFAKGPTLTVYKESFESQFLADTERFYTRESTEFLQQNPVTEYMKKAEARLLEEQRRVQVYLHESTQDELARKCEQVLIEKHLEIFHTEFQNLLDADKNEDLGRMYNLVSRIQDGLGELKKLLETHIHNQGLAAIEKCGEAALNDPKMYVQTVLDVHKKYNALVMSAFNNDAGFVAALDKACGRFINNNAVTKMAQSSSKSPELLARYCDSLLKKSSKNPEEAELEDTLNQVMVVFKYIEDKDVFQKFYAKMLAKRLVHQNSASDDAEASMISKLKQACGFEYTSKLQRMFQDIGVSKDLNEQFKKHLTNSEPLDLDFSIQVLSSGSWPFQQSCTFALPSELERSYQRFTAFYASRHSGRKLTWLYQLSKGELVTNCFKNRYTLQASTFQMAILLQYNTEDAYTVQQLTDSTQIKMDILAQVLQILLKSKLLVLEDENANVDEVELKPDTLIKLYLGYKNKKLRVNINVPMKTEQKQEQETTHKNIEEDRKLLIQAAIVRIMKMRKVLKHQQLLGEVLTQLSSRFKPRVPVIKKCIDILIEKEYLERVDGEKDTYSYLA
T8 sequence (P62877 whole entry partner, the tested form may be a part): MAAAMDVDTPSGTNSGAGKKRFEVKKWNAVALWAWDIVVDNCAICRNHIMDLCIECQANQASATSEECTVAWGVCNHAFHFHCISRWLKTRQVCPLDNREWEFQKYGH
T8 sequence (Q15843 1-76 partner limits assumed): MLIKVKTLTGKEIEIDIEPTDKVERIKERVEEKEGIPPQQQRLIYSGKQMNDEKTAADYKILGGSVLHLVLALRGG
T8 sequence (P35222 17-60 limits assumed): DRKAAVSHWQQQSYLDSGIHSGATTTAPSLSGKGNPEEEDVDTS
T7 sequence (Q9Y297 1-569 isoform Q9Y297-2): as the sequence (Q9Y297 1-569 isoform Q9Y297-2, stated change not applied, one chain of several) above
T7 sequence (P63208 whole entry partner, the tested form may be a part): as the sequence (P63208 whole entry partner, one chain of several, the tested form may be a part) above
T7 sequence (P35222 17-48 limits assumed): as the sequence (P35222 17-48 S37A limits assumed) above, with A21S counted along it
T9 sequence (Q9Y297 1-569 isoform Q9Y297-2): as the sequence (Q9Y297 1-569 isoform Q9Y297-2, stated change not applied, one chain of several) above
T9 sequence (P63208 whole entry partner): as the sequence (P63208 whole entry partner, one chain of several, the tested form may be a part) above

cooperativity of peptide binding to β-TrCP [1]: 1000 fold | ubiquitylation of S33E/S37A β-catenin peptide [2]: robust time-dependent ubiquitylation | ubiquitylation of full-length S33E/S37A β-catenin protein [3]: strongly ubiquitylated | EC50 [4]: 3.9 ± 0.1 µM | Kd [5]: 22 nM | concentration giving ubiquitylation greater than WT pSer33/pSer37 levels [6]: 250 nM
Compound: O=C(O)c1cccc(NC(=O)c2c(Sc3c(Cl)cccc3Cl)cc(C(F)(F)F)[nH]c2=O)c1 [NRX-103094]

cooperativity of binding [7]: 13 fold | EC50 [8]: 80 ± 4 µM | ligand concentration at which ubiquitin chain formation resembles WT pSer33/pSer37 peptide [9]: ≥ 16 μM | enhancement of ubiquitylation of pSer33/Ser37 β-catenin peptide ([9]; peptide residues 17–60): markedly enhances | EC50 [10]: 22.9 ± 1.4 µM
Compound: O=C(O)c1cccc(NC(=O)c2c(Oc3ccccc3)cc(C(F)(F)F)[nH]c2=O)c1 [NRX-2663]

decrease in binding affinity relative to pSer33/S37A peptide (β-TrCP): > 10 fold
Compound: Ac-CDRKAAVSHWQQQSYLDEGIHAGATTTAPSLSG [S33E/S37A]
